Reference: ChEMBL document CHEMBL1201862, “PubChem BioAssay data set” (2004)
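Compound exposure: 48 hours, 5 concentrations, 96-well plates. Abbreviation: GI50, concentration required for 50% inhibition of growth.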 The source made the active and inactive calls. No stated cut-off is given here; in the data, active = GI50 up to about 1.1 µM and inactive = higher.

Experiments:
Assay in all cases: growth of human tumour cells (NCI), 48 h
786-0 = tested on: 786-0
A549 = tested on: A549
CAKI-1 = tested on: CAKI-1
DLD-1 = tested on: DLD-1
DMS-114 = tested on: DMS-114
EKVX = tested on: EKVX
HCC 2998 = tested on: HCC 2998
HCT-116 = tested on: HCT-116
HL-60 = tested on: HL-60
HOP-18 = tested on: HOP-18
HOP-62 = tested on: HOP-62
HOP-92 = tested on: HOP-92
HT-29 = tested on: HT-29
KM-20L2 = tested on: KM-20L2
KM12 = tested on: KM12
LOX IMVI = tested on: LOX IMVI
LXFL 529 = tested on: LXFL 529
M14 = tested on: M14
M19-MEL = tested on: M19-MEL
Malme-3M = tested on: Malme-3M
NCI-H226 = tested on: NCI-H226
NCI-H23 = tested on: NCI-H23
NCI-H460 = tested on: NCI-H460
NCI-H522 = tested on: NCI-H522
OVCAR-4 = tested on: OVCAR-4
OVCAR-5 = tested on: OVCAR-5
OVCAR-8 = tested on: OVCAR-8
RXF 393 = tested on: RXF 393
SF-268 = tested on: SF-268
SF-295 = tested on: SF-295
SF-539 = tested on: SF-539
SK-MEL-28 = tested on: SK-MEL-28
SK-MEL-2 = tested on: SK-MEL-2
SK-MEL-5 = tested on: SK-MEL-5
SN12C = tested on: SN12C
SNB-19 = tested on: SNB-19
SNB-75 = tested on: SNB-75
SNB-78 = tested on: SNB-78
SW-620 = tested on: SW-620
TK-10 = tested on: TK-10
U-251 = tested on: U-251
UACC-257 = tested on: UACC-257
UO-31 = tested on: UO-31

Measured: GI50

CC(C)N(O)C(=N)c1ccccc1
active: HOP-18 0.0473 µM
inactive: 786-0 54.7 µM | A549 > 100 µM | CAKI-1 > 100 µM | DLD-1 > 100 µM | DMS-114 > 100 µM | EKVX > 100 µM | HCC 2998 > 100 µM | HCT-116 > 100 µM | HL-60 > 100 µM | HOP-62 > 100 µM | HOP-92 > 100 µM | HT-29 > 100 µM | KM-20L2 > 100 µM | KM12 > 100 µM | LOX IMVI > 100 µM | LXFL 529 > 100 µM | M14 > 100 µM | M19-MEL > 100 µM | Malme-3M > 10 µM | NCI-H226 > 100 µM | NCI-H23 > 100 µM | NCI-H460 > 100 µM | NCI-H522 > 100 µM | OVCAR-4 > 100 µM | OVCAR-5 > 100 µM | OVCAR-8 > 100 µM | RXF 393 > 100 µM | SF-268 > 100 µM | SF-295 > 100 µM | SF-539 > 100 µM | SK-MEL-28 > 100 µM | SK-MEL-2 > 100 µM | SK-MEL-5 > 100 µM | SN12C > 100 µM | SNB-19 > 100 µM | SNB-75 > 100 µM | SNB-78 > 100 µM | SW-620 > 100 µM | TK-10 > 100 µM | U-251 > 100 µM | UACC-257 > 100 µM | UO-31 > 100 µM
